Data from the supplement of paper PMC10307832.

Assays:
Assay in all cases: relative viability (nuclei count vs DMSO), 5 days (fraction); higher = more cells survive
CAP-232 + Trametinib = compound: C[C@H]([C@@H](C(=O)N)NC(=O)[C@@H]1CSSC[C@@H](C(=O)N[C@H](C(=O)N[C@@H](C(=O)N[C@H](C(=O)N1)CCCCN)CC2=CNC3=CC=CC=C32)CC4=CC=C(C=C4)O)NC(=O)[C@@H](CC5=CC=CC=C5)N)O [CAP-232] + CC(=O)Nc1cccc(-n2c(=O)n(C3CC3)c(=O)c3c(Nc4ccc(I)cc4F)n(C)c(=O)c(C)c32)c1 [Trametinib] (partner 0.02 µM)
Method in brief: (§1)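 Relative viability was taken as the ratio of nuclei in treated wells to nuclei in vehicle wells. Lung cancer cell lines in 1536-well plates received compounds by pin tool one day after seeding, either one drug alone or a fixed anchor-drug dose plus five library-drug doses (not always all listed) in √10 steps. Nuclei were counted on 4× images after 5 days of treatment, and values are medians of duplicate plates.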

CAP-232 + Olaparib = compound: C[C@H]([C@@H](C(=O)N)NC(=O)[C@@H]1CSSC[C@@H](C(=O)N[C@H](C(=O)N[C@@H](C(=O)N[C@H](C(=O)N1)CCCCN)CC2=CNC3=CC=CC=C32)CC4=CC=C(C=C4)O)NC(=O)[C@@H](CC5=CC=CC=C5)N)O [CAP-232] + O=C(c1cc(Cc2n[nH]c(=O)c3ccccc23)ccc1F)N1CCN(C(=O)C2CC2)CC1 [Olaparib] (partner 8 µM)
Method in brief: as §1

CAP-232 + Crizotinib = compound: C[C@H]([C@@H](C(=O)N)NC(=O)[C@@H]1CSSC[C@@H](C(=O)N[C@H](C(=O)N[C@@H](C(=O)N[C@H](C(=O)N1)CCCCN)CC2=CNC3=CC=CC=C32)CC4=CC=C(C=C4)O)NC(=O)[C@@H](CC5=CC=CC=C5)N)O [CAP-232] + C[C@@H](Oc1cc(-c2cnn(C3CCNCC3)c2)cnc1N)c1c(Cl)ccc(F)c1Cl [Crizotinib] (partner 1 µM)
Method in brief: as §1

CAP-232 + Linsitinib = compound: C[C@H]([C@@H](C(=O)N)NC(=O)[C@@H]1CSSC[C@@H](C(=O)N[C@H](C(=O)N[C@@H](C(=O)N[C@H](C(=O)N1)CCCCN)CC2=CNC3=CC=CC=C32)CC4=CC=C(C=C4)O)NC(=O)[C@@H](CC5=CC=CC=C5)N)O [CAP-232] + C[C@]1(O)C[C@@H](c2nc(-c3ccc4ccc(-c5ccccc5)nc4c3)c3c(N)nccn32)C1 [Linsitinib] (partner 1 µM)
Method in brief: as §1

CAP-232 + Pemetrexed = compound: C[C@H]([C@@H](C(=O)N)NC(=O)[C@@H]1CSSC[C@@H](C(=O)N[C@H](C(=O)N[C@@H](C(=O)N[C@H](C(=O)N1)CCCCN)CC2=CNC3=CC=CC=C32)CC4=CC=C(C=C4)O)NC(=O)[C@@H](CC5=CC=CC=C5)N)O [CAP-232] + Nc1nc2[nH]cc(CCc3ccc(C(=O)N[C@@H](CCC(=O)O)C(=O)O)cc3)c2c(=O)[nH]1 [Pemetrexed] (partner 0.2 µM)
Method in brief: as §1

| Cell Line | relative viability (CAP-232 + Trametinib; first compound 0.4 µM) | relative viability (CAP-232 + Trametinib; first compound 1.265 µM) | relative viability (CAP-232 + Trametinib; first compound 4 µM) | relative viability (CAP-232 + Trametinib; first compound 12.65 µM) | relative viability (CAP-232 + Olaparib; first compound 0.4 µM) | relative viability (CAP-232 + Olaparib; first compound 1.265 µM) | relative viability (CAP-232 + Olaparib; first compound 4 µM) | relative viability (CAP-232 + Olaparib; first compound 12.65 µM) | relative viability (CAP-232 + Crizotinib; first compound 0.4 µM) | relative viability (CAP-232 + Crizotinib; first compound 1.265 µM) | relative viability (CAP-232 + Crizotinib; first compound 4 µM) | relative viability (CAP-232 + Crizotinib; first compound 12.65 µM) | relative viability (CAP-232 + Linsitinib; first compound 0.4 µM) | relative viability (CAP-232 + Linsitinib; first compound 1.265 µM) | relative viability (CAP-232 + Linsitinib; first compound 4 µM) | relative viability (CAP-232 + Linsitinib; first compound 12.65 µM) | relative viability (CAP-232 + Pemetrexed; first compound 0.4 µM) | relative viability (CAP-232 + Pemetrexed; first compound 1.265 µM) | relative viability (CAP-232 + Pemetrexed; first compound 4 µM) | relative viability (CAP-232 + Pemetrexed; first compound 12.65 µM) |
| --- | --- | --- | --- | --- | --- | --- | --- | --- | --- | --- | --- | --- | --- | --- | --- | --- | --- | --- | --- | --- |
| LC-2-ad | 0.967 | 0.925 | 0.936 | 0.884 | 0.726 | 0.738 | 0.768 | 0.7 | 0.436 | 0.464 | 0.451 | 0.391 | 0.84 | 0.847 | 0.766 | 0.807 | 0.278 | 0.269 | 0.287 | 0.228 |
| LCLC-97TM1 | 0.143 | 0.184 | 0.154 | 0.188 | 0.418 | 0.421 | 0.346 | 0.438 | 0.494 | 0.347 | 0.28 | 0.315 | 0.148 | 0.21 | 0.218 | 0.18 | 0.192 | 0.16 | 0.167 | 0.183 |
| LCLC-103H | 0.662 | 0.666 | 0.723 | 0.703 | 0.882 | 0.752 | 0.733 | 0.751 | 1.1 | 0.984 | 0.98 | 1.06 | 1.13 | 1.08 | 1.13 | 0.946 | 0.443 | 0.441 | 0.431 | 0.445 |
| LK-2 | 0.438 | 0.687 | 0.711 | 0.563 | 0.762 | 0.834 | 0.702 | 0.811 | 0.216 | 0.251 | 0.181 | 0.199 | 0.463 | 0.836 | 0.517 | 0.389 | 0.325 | 0.284 | 0.326 | 0.294 |
| LOU-NH91 | 0.834 | 0.811 | 0.783 | 0.445 | 0.945 | 0.873 | 0.907 | 0.574 | 0.748 | 0.76 | 0.921 | 0.705 | 0.923 | 1.06 | 0.865 | 0.719 | 0.473 | 0.378 | 0.392 | 0.275 |
| LU99A | 0.283 | 0.634 | 0.553 | 0.444 | 0.233 | 0.232 | 0.332 | 0.306 | 0.486 | 0.652 | 0.513 | 0.561 | 0.52 | 0.504 | 0.506 | 0.533 | 0.181 | 0.139 | 0.182 | 0.177 |
